According to patent US20090264289A1, “Use of Arylcarboxylic Acid Biphenylamides for Seed Treatment” (BASF SE, priority 2006, published 2009):

Assays:
Assay type in all cases: in vivo
Puccinia recondita [1] = test: Activity against Puccinia recondita on wheat (solution pipetted to seedlings in vermiculite); conditions: inoculated 7 days after treatment, 7 days incubation, control 80
Experimental: (§1) Activity Against Puccinia recondita on Wheat The active compounds were formulated as a stock solution in acetone at a concentration of 10 000 ppm. The stock solution was diluted with water to the stated active compound concentration. 1 ml of the respective solution was pipetted to wheat seedlings grown in vermiculite (10 to 12 seedlings per pot). 7 days after the treatment the wheat plants were inoculated with a spore suspension of Puccinia recondita. After 7 days of incubation, the extent of infection was determined visually in %. The concentration is given in g of active compound (g a.i.) per 100 kg of seeds.

Erysiphe graminis = test: Activity against Erysiphe graminis on wheat (solution pipetted to seedlings in vermiculite); conditions: inoculated 7 days after treatment, 7 days incubation, control 80
Experimental: as §1, with “Erysiphe graminis” for “Puccinia recondita”, “Erysiphe graminis.” for “Puccinia recondita.”

Septoria tritici [2] = test: Activity against Septoria tritici on wheat (seedlings treated, detached leaf portions on agar inoculated); conditions: wheat seedlings in vermiculite, leaf portions on agar inoculated 7 days after treatment, 18° C., 18 days incubation, control 100
Experimental: Activity Against Septoria tritici on Wheat The active compound Ia.1 was formulated as a stock solution in acetone at a concentration of 10 000 ppm. The stock solution was diluted with water to the stated active compound concentration. 1 ml of the respective solution was pipetted to wheat seedlings grown in vermiculite (10 to 12 seedlings per pot). 7 days after the treatment leaf portions of 5 cm length were placed in petri dishes filled with aqueous agar. The leaf portions were then inoculated with a spore suspension of Septoria tritici. The closed Petri dishes were incubated in a climatized test cabinet at 18° C. and 12 h light exposure per day. After 18 days of incubation, the extent of infection was determined visually in %. The concentration is given in g of active compound (g a.i.) per 100 kg of seeds.

Puccinia recondita [3] = test: Activity against Puccinia recondita on wheat (seed treatment); conditions: 250 g a.i./100 kg seeds, inoculated 14 days after sowing, 7 days incubation, control 90
Experimental: Activity Against Puccinia recondita on Wheat (Seed Treatment) 24 mg of the active compounds listed in table 2 were in each case dissolved in 1 ml of acetone to give a stock solution. The stock solution was diluted with acetone to give the test solution. Aliquots of 4.8 g of wheat seeds were placed in glass vials, where they were treated in an air stream with 1 ml of the test solution containing the active compound. In each case, 10 grains were sown in pots of 8 cm diameter. Untreated grains served as control. […] After 7 days of incubation, the extent of infection was determined visually in %. The concentration is given in g of active compound (g a.i.) per 100 kg of seeds.

Septoria tritici [4] = test: Activity against Septoria tritici on wheat (seed treatment); conditions: inoculated 14 days after sowing, 24 days incubation, control 85
Experimental: Activity Against Septoria tritici on Wheat (Seed Treatment) 9.6 mg of the active compound Ia.90 was dissolved in 1 ml of acetone to give a stock solution. The stock solution was diluted with acetone to give the test solution. Aliquots of 4.8 g of wheat seeds were placed in glass vials, where they were treated in an air stream with 0.5 ml of the test solution containing the active compound. In each case, 10 grains were sown in pots of 8 cm diameter. Untreated grains served as control. 14 days after sowing, the wheat plants were inoculated with a spore suspension of Septoria tritici. After 24 days of incubation, the extent of infection was determined visually in %. The concentration is given in g of active compound (g a.i.) per 100 kg of seeds.

Phakopsora pachyrhizi [5] = test: Activity against Phakopsora pachyrhizi on soybean (seed treatment); conditions: inoculated 14 days after sowing, 10 days incubation, control 87
Experimental: Activity Against Phakopsora pachyrhizi on soybean (Seed Treatment)
16 mg of the active compounds listed in table 3 were in each case dissolved in 1 ml of acetone to give a stock solution. The stock solution was diluted with acetone to give the test solution. Aliquots of 1.5 g of soybean seeds were placed in glass vials, where they were treated in an air stream with 0.6 ml of the test solution containing the active compound. In each case, 8 grains were sown in pots of 8 cm diameter. Untreated grains served as control. 14 days after sowing, the soybean plants were inoculated with a spore suspension of Phakopsora pachyrhizi. After 10 days of incubation, the extent of infection was determined visually in %. The concentration is given in g of active compound (g a.i.) per 100 kg of seeds.

Septoria tritici [6] = test: Activity against Septoria tritici on wheat (solution pipetted to seedlings in vermiculite); conditions: inoculated 7 days after treatment, 18 days incubation, control 60
Experimental: as §1, with “Against Septoria tritici” for “Against Puccinia recondita”, “active compound Ia.1 was” for “active compounds were”, “in dimethyl sulfoxide” for “in acetone”, “of Septoria tritici.” for “of Puccinia recondita.”, “After 18” for “After 7”

Phakopsora pachyrhizi [7] = test: Activity against Phakopsora pachyrhizi on soybean (solution pipetted to seedlings in vermiculite); conditions: 250 g a.i./100 kg, inoculated 7 days after treatment, 14 days incubation, control 88
Experimental: Activity Against Phakopsora pachyrhizi on Soybean
The active compounds were formulated as a stock solution in dimethylsulfoxide at a concentration of 10 000 ppm. The stock solution was diluted with water to the stated active compound concentration. 1 ml of the respective solution was pipetted to soybean seedlings grown in vermiculite (1 seedling per pot). 7 days after the treatment the soybean plants were inoculated with a spore suspension of Phakopsora pachyrhizi. After 14 days of incubation, the extent of infection was determined visually in %. The concentration is given in g of active compound (g a.i.) per 100 kg of seeds.

SMILES | Infected leaf area (Puccinia recondita [1]; 125 g a.i./100 kg) [%] | Infected leaf area (Puccinia recondita [1]; 250 g a.i./100 kg) [%] | Infected leaf area (Erysiphe graminis; 125 g a.i./100 kg) [%] | Infected leaf area (Erysiphe graminis; 250 g a.i./100 kg) [%] | Infected leaf area (Septoria tritici [2]; 125 g a.i./100 kg) [%] | Infected leaf area (Septoria tritici [2]; 250 g a.i./100 kg) [%] | also measured
Cn1cc(C(=O)Nc2ccccc2-c2cc(Cl)cc(Cl)c2)c(C(F)F)n1 [Ia.43] | 0 | 0 | 2 | 0 | – | – | –
Cn1cc(C(=O)Nc2ccccc2-c2ccc(F)c(Cl)c2)c(C(F)F)n1 [Ia.44] | 0 | 0 | – | – | – | – | –
Cn1cc(C(=O)Nc2ccccc2-c2ccc(F)c(F)c2)c(C(F)F)n1 [Ia.45] | 0 | 0 | – | – | – | – | –
Cn1cc(C(=O)Nc2ccccc2-c2ccc(Cl)cc2F)c(C(F)(F)F)n1 [Ia.57] | 0 | 0 | – | – | – | – | –
Cn1cc(C(=O)Nc2ccccc2-c2cccc(C(F)(F)F)c2)c(C(F)(F)F)n1 [Ia.64] | 0 | 0 | – | – | – | – | –
Cc1cc(-c2ccccc2NC(=O)c2cn(C)nc2C(F)(F)F)c(F)cc1Cl [Ia.84] | 0 | 0 | 0 | 0 | 3 | 3 | –
Cn1cc(C(=O)Nc2ccccc2-c2cc(F)c(F)c(F)c2)c(C(F)(F)F)n1 [Ia.85] | 0 | 0 | 0 | 0 | 0 | 0 | Infected leaf area (Puccinia recondita [3]): 11%
Cn1cc(C(=O)Nc2ccccc2-c2cc(F)c(F)c(F)c2)c(C(F)F)n1 [Ia.90] | 2 | 1 | 0 | 0 | 7 | 3 | Infected leaf area (Septoria tritici [4]; 25 g a.i./100 kg seeds): 1%; Infected leaf area (Septoria tritici [4]; 50 g a.i./100 kg seeds): 0%; Infected leaf area (Septoria tritici [4]; 100 g a.i./100 kg seeds): 0%; Infected leaf area (Puccinia recondita [3]): 0%; Infected leaf area (Phakopsora pachyrhizi [5]; 125 g a.i./100 kg seeds): 1%; Infected leaf area (Phakopsora pachyrhizi [5]; 250 g a.i./100 kg seeds): 2%; Infected leaf area (Septoria tritici [6]; 125 g a.i./100 kg): 0%; Infected leaf area (Septoria tritici [6]; 250 g a.i./100 kg): 0%; Infected leaf area (Phakopsora pachyrhizi [7]): 0%
Cn1cc(C(=O)Nc2ccc(F)cc2-c2ccc(Cl)c(Cl)c2)c(C(F)F)n1 [Ia.110] | – | – | 0 | 0 | 3 | 7 | Infected leaf area (Phakopsora pachyrhizi [7]): 17%
Cn1cc(C(=O)Nc2ccccc2-c2ccc(SC(F)(F)F)cc2)c(C(F)(F)F)n1 [Ia.173] | 0 | 0 | 0 | 0 | – | – | –
Cn1cc(C(=O)Nc2ccccc2-c2cc(F)c(F)c(F)c2)c(C(F)Cl)n1 (stereo not shown) [Ia.211] | 0 | 0 | 0 | 0 | – | – | Infected leaf area (Phakopsora pachyrhizi [7]): 3%
Cc1nn(C)c(Cl)c1C(=O)Nc1ccccc1-c1ccc(C(F)(F)F)cc1 [Ia.219] | 8 | 6 | – | – | – | – | –
Cn1cc(C(=O)Nc2ccccc2-c2cccc(Cl)c2)c(CF)n1 [Ia.230] | 0 | 0 | – | – | – | – | –
Cn1cc(C(=O)Nc2ccccc2-c2cccc(Cl)c2)c(C(F)F)n1 [Ia.231] | 0 | 0 | – | – | – | – | –
Cn1cc(C(=O)Nc2ccccc2-c2ccccc2Cl)c(C(F)F)n1 [Ia.233] | 2 | 0 | – | – | 7 | 0 | –
Cn1cc(C(=O)Nc2ccccc2-c2cc(F)cc(F)c2)c(C(F)F)n1 [Ia.244] | 0 | 0 | – | – | – | – | –
Cn1cc(C(=O)Nc2ccccc2-c2cc(F)cc(F)c2)c(C(F)(F)F)n1 [Ia.245] | 0 | 0 | 0 | 0 | 0 | 0 | Infected leaf area (Puccinia recondita [3]): 19%; Infected leaf area (Phakopsora pachyrhizi [7]): 0%
Cn1cc(C(=O)Nc2c(F)cccc2-c2ccc(F)c(Cl)c2)c(C(F)F)n1 [Ia.249] | 0 | 0 | – | – | – | – | –
Cn1cc(C(=O)Nc2ccccc2-c2cc(F)cc(Cl)c2)c(C(F)F)n1 [Ia.250] | 0 | 0 | – | – | – | – | –
Cn1cc(C(=O)Nc2ccccc2-c2cc(F)cc(Cl)c2)c(C(F)(F)F)n1 [Ia.251] | 0 | 0 | – | – | – | – | –
Cn1cc(C(=O)Nc2ccccc2-c2cc(Cl)ccc2Cl)c(C(F)(F)F)n1 [Ia.255] | 0 | 0 | 0 | 0 | 3 | 3 | Infected leaf area (Puccinia recondita [3]): 38%
Cn1cc(C(=O)Nc2ccccc2-c2ccc(SC(F)(F)F)cc2)c(C(F)F)n1 [Ia.313] | 0 | 0 | 0 | 0 | 0 | 0 | –
O=C(Nc1ccccc1-c1ccc(Cl)cc1)c1cccnc1Cl [Id.1] | – | – | – | – | – | – | Infected leaf area (Phakopsora pachyrhizi [7]): 40%
O=C(Nc1ccccc1-c1ccc(OC(F)(F)F)cc1)c1cccnc1Cl [Id.55] | 0 | 0 | – | – | – | – | –
O=C(Nc1ccccc1-c1ccc(OC(F)(F)C(F)F)cc1)c1cccnc1Cl [Id.56] | 0 | 0 | – | – | – | – | –
O=C(Nc1ccccc1-c1ccc(SC(F)(F)F)cc1)c1cccnc1Cl [Id.58] | 13 | 13 | – | – | – | – | –
